This is an account of results in patent US8044082B2, “N-phenylacetamide inhibitors of the enzyme SOAT-1 and pharmaceutical/cosmetic compositions comprised thereof” (Galderma Research & Development, priority 2007, dated 2011).

In data set [1] the target is T1, enzyme ACAT-1 (Homo sapiens, UniProt P35610).
T1 sequence (P35610 1-550): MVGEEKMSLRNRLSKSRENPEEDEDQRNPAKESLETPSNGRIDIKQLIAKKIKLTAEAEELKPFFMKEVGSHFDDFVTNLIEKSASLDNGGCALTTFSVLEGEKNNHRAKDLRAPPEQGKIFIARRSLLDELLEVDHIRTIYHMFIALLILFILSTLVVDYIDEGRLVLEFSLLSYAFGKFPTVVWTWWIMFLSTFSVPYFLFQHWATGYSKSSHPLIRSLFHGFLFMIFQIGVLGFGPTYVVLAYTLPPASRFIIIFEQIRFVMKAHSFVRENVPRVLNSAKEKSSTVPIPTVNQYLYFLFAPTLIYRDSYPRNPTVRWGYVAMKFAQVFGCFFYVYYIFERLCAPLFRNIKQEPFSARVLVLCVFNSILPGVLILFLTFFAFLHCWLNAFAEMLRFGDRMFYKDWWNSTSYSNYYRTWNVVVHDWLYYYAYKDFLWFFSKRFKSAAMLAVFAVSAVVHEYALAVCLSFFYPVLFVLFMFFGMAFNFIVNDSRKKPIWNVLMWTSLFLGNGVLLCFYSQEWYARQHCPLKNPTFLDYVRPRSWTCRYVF
Put plainly: ACAT-1 (SOAT-1) inhibition test in HepG2 cells with NBD-cholesterol fluorescence. The settings on record: NBD-cholesterol 1 μg/ml, incubation 6 h at 37° C., fluorescence excitation 490 nm / emission 540 nm. The format is cell-based. The method, then:
The compounds (I) according to the invention, as well as their pharmaceutically acceptable salts, solvates and/or hydrates, have inhibitory properties on the enzyme SOAT-1. This inhibitory activity on the enzyme SOAT-1 is measured according to a primary enzymatic test HepG2, as described in Example 64.
The compounds of formula (I) according to the invention have been subjected to a test allowing their inhibitory action with respect to the enzyme ACAT-1 to be evaluated inspired by the following publication: “Identification of ACAT1- and ACAT2-specific inhibitors using a novel, cell-based fluorescence assay: individual ACAT uniqueness”, J. Lipid Res. (2004) vol. 45, pages 378-386.
The principle of this test is based on the employment of NBD-cholesterol, an analogue of cholesterol whose fluorescence depends on its environment. When this is present in a polar environment, it is weakly fluorescent although in a nonpolar environment it is strongly fluorescent. Free NBD-cholesterol locates itself in the cell membranes and is weakly fluorescent in this polar environment. When the NBD-cholesterol is esterified by ACAT, the ester of NBD-cholesterol locates itself in the nonpolar lipid droplets and is in that case strongly fluorescent.
The method below is applied: The HepG2 cells are incubated in the presence of NBD-cholesterol (1 μg/ml) and of the compound of formula (I) to be tested in black 96-well plates with a transparent base at a rate of 30 000 cells per well. After incubation for 6 h at 37° C., under 5% CO2, the medium is eliminated by turning over and the cells are washed with 2 times 100 μl of PBS. After addition of 50 μl of lysis buffer (NaPO4 10 mM, Igepal 1%), the plates are stirred for 5 min and read in fluorescence (excitation 490 nm, emission 540 nm) on a FUSION apparatus (Perkin-Elmer).

In turn, `Cc1ccc(N2C(=O)N(CC(=O)Nc3c(C)cc(C)cc3Br)C(=O)C23CCCCC3)cc1` [compound (I.52), N-(2-Bromo-4,6-dimethylphenyl)-2-(2,4-dioxo-1-p-tolyl-1,3-diazaspiro[4.5]dec-3-yl)acetamide] returned a melting point of 245 °C. In data set [1], the IC50 is 5.3 nM.
`CCc1cccc(CC)c1NC(=O)CN1C(=O)N(c2ccc(Cl)cc2)C2(CCCC2)C1=O` [compound (I.61), 2-[1-(4-Chlorophenyl)-2,4-dioxo-1,3-diazaspiro[4.4]non-3-yl]-N-(2,6-diethylphenyl)acetamide] registered a melting point of 218 °C. In data set [1], the IC50 is 2.7 nM.

The term melting point denotes the temperature, or range, at which the solid turns liquid. The IC50 is the point on the concentration scale where inhibition reaches its midpoint.
